Like-named read-outs stand apart in the source and are kept apart here.
Experiments:
[1] = system: mouse; conditions: in vivo; cited from earlier work
[2] = system: rat engineered heart tissue (EHT); experiment: Video-optical analysis of contractile parameters of spontaneously beating rat EHTs (50 nM epinephrine); conditions: for significant T2 prolongation (p<0.05 and at least 15 % vs baseline): 1-, 10-, 100-fold FTPC, 50 nM epinephrine, n = 4–8; for irregular beating as the primary effect: sinusoidal fluctuation of twitch amplitudes, time dependent; for ability to mimic the effect of JTV519 on 4AP-induced changes: flecainide 0.5 µM; for effect on 4AP-induced beating irregularity and aftercontractions / T2 values: 4AP 10 mM; for effect on 4AP-induced beating irregularity and aftercontractions: SEA0400 2 µM or JTV519 2 µM; for relaxation remaining prolonged with 4AP in presence of inhibitor: high concentration of 4AP plus SEA0400 or JTV519
[3] = system: rat; conditions: cited from earlier work
[4] = 4AP 10 mM in absence and presence of the blocker, SEA0400 2 µM, JTV519 2 µM

SMILES: CC(C)NCC(O)c1ccc(NS(C)(=O)=O)cc1 (racemic) [D,L-sotalol]
- LD50 [1]: 790 mg∙kg^-1 (mouse, i. p.)
- T2-effective concentrations [2]: 100 fold FTPC
- published IKs IC50 relative to threshold for group 1 or 2 effects [2]: at or below the threshold for group 1 or 2 effects
- significant T2 prolongation (p<0.05 and at least 15 % vs baseline) [2]: Significant T2 prolongations

SMILES: CCN(CC)CCCN(c1ccccc1)C1Cc2ccccc2C1 [Aprindine]
- significant T2 prolongation (p<0.05 and at least 15 % vs baseline) [2]: Significant T2 prolongations

SMILES: COc1ccc(CCN2CCC(Nc3nc4ccccc4n3Cc3ccc(F)cc3)CC2)cc1 [Astemizole]
- LD50 [1]: 35 mg∙kg^-1 (mouse, i. v.)
- effect on force (group 3) ([2]; 1–100× FTPC): decrease in force

SMILES: CC(C)COCC(CN(Cc1ccccc1)c1ccccc1)N1CCCC1 (stereo not drawn) [Bepridil]
- published IKs IC50 relative to threshold for group 1 or 2 effects [2]: at or below the threshold for group 1 or 2 effects
- significant T2 prolongation (p<0.05 and at least 15 % vs baseline) [2]: Significant T2 prolongations
- irregular beating as the primary effect [2]: induced irregular beating

SMILES: COc1cc(N)c(Cl)cc1C(=O)NC1CCN(CCCOc2ccc(F)cc2)CC1OC (stereo not drawn) [Cisapride]
- LD50 ([3]; in vivo): 4.166 mg∙kg^-1 (rat, p. o.)
- significant T2 prolongation (p<0.05 and at least 15 % vs baseline) [2]: Significant T2 prolongations

SMILES: CC[C@H]1OC(=O)[C@H](C)[C@@H](O[C@H]2C[C@@](C)(OC)[C@@H](O)[C@H](C)O2)[C@H](C)[C@@H](O[C@@H]2O[C@H](C)C[C@H](N(C)C)[C@H]2O)[C@](C)(OC)C[C@@H](C)C(=O)[C@H](C)[C@@H](O)[C@]1(C)O [Clarithromycin]
- LD50 ([3]; in vivo): 1.270 mg∙kg^-1 (rat, p. o.) 850 mg∙kg^-1 (mouse, i. p.)
- LD50 [1]: 1.270 mg∙kg^-1 (rat, p. o.) 850 mg∙kg^-1 (mouse, i. p.)
- published IC50 values for hERG and Ito relative to threshold for T2 prolongation or irregularity [2]: at or below the threshold for T2 prolongation or irregularity
- significant T2 prolongation (p<0.05 and at least 15 % vs baseline) [2]: Significant T2 prolongations

SMILES: CNCCCN1c2ccccc2CCc2ccccc21 [Desipramine]
- LD50 [1]: 740 mg∙kg^-1 (mouse, p. o.)
- significant T2 prolongation (p<0.05 and at least 15 % vs baseline) [2]: Significant T2 prolongations
- irregular beating as the primary effect [2]: induced irregular beating

SMILES: CN(C)CCOC(c1ccccc1)c1ccccc1 [Diphenhydramine]
- effect on contraction time T1 (group 3) ([2]; 1–100× FTPC): prolongation of contraction time T1

SMILES: CC(C)N(CCC(C(N)=O)(c1ccccc1)c1ccccn1)C(C)C (stereo not drawn) [Disopyramide]
- LD50 ([3]; in vivo): 333 mg∙kg^-1 (rat, p. o.)
- T2-effective concentrations [2]: 5 fold FTPC
- significant T2 prolongation (p<0.05 and at least 15 % vs baseline) [2]: Significant T2 prolongations

SMILES: CN(CCOc1ccc(NS(C)(=O)=O)cc1)CCc1ccc(NS(C)(=O)=O)cc1 [Dofetilide]
- effect on T2 at 100-fold IC50 concentrations [2]: lack of effect
- effect on the parameters studied (group 4) ([2]; 1–100× FTPC): without any effect on the parameters studied

SMILES: O=c1[nH]c2ccccc2n1CCCN1CCC(n2c(=O)[nH]c3cc(Cl)ccc32)CC1 [Domperidone]
- significant T2 prolongation (p<0.05 and at least 15 % vs baseline) [2]: Significant T2 prolongations

SMILES: CC(C)(C)c1ccc(C(=O)CCCN2CCC(OC(c3ccccc3)c3ccccc3)CC2)cc1 [Ebastine]
- significant T2 prolongation (p<0.05 and at least 15 % vs baseline) [2]: Significant T2 prolongations

SMILES: CC(C)(C(=O)O)c1ccc(C(O)CCCN2CCC(C(O)(c3ccccc3)c3ccccc3)CC2)cc1 (stereo not drawn) [Fexofenadine]
- significant T2 prolongation (p<0.05 and at least 15 % vs baseline) [2]: Significant T2 prolongations

SMILES: O=C(NCC1CCCCN1)c1cc(OCC(F)(F)F)ccc1OCC(F)(F)F (stereo not drawn) [Flecainide]
- LD50 ([3]; in vivo): 1.346 mg∙kg^-1 (rat, p. o.)
- significant T2 prolongation (p<0.05 and at least 15 % vs baseline) [2]: Significant T2 prolongations
- ability to mimic the effect of JTV519 on 4AP-induced changes ([2]; data not shown): did not mimic the effect of JTV519

SMILES: CC[C@H](CO)Nc1nc(NCc2ccccc2)n2ncc(C(C)C)c2n1 [GP 0210]
- Effect on EHT contractility ([2]; NCEs tested at 0.1, 1, 10 µM): -

SMILES: O=C(CCCN1CCC(O)(c2ccc(Cl)cc2)CC1)c1ccc(F)cc1 [Haloperidol]
- LD50 ([3]; in vivo): 128 mg∙kg^-1 (rat, p. o.) 30 mg∙kg^-1 (mouse, i. p.)
- LD50 [1]: 128 mg∙kg^-1 (rat, p. o.) 30 mg∙kg^-1 (mouse, i. p.)
- effect on contraction time T1 (group 3) ([2]; 1–100× FTPC): prolongation of contraction time T1

SMILES: CCCCCCCN(CC)CCCC(O)c1ccc(NS(C)(=O)=O)cc1 (stereo not drawn) [Ibutilide]
- effect on T2 at 100-fold IC50 concentrations [2]: lack of effect
- effect on the parameters studied (group 4) ([2]; 1–100× FTPC): without any effect on the parameters studied

SMILES: CN(C)CCCN1c2ccccc2CCc2ccccc21 [Imipramine]
- irregular beating as the primary effect [2]: induced irregular beating

SMILES: COc1ccc2c(c1)CN(C(=O)CCN1CCC(Cc3ccccc3)CC1)CCS2 [JTV519]
- effect on the T2-prolonging effect of 4AP [2, 4]: reduced the effect of 4AP
- effect on 4AP-induced beating irregularity and aftercontractions [2]: completely abolished beating irregularity and aftercontractions
- T2 values ([2]; SEA0400 2 µM, JTV519 2 µM): 80 ms
- relaxation remaining prolonged with 4AP in presence of inhibitor [2]: ~ 200%

SMILES: OC(c1cc(C(F)(F)F)nc2c(C(F)(F)F)cccc12)C1CCCCN1 (stereo not drawn) [Mefloquine]
- LD50 ([3]; in vivo): 880 mg∙kg^-1 (rat, p. o.)
- effect on contraction time T1 (group 3) ([2]; 1–100× FTPC): prolongation of contraction time T1

SMILES: COc1c(N2C[C@@H]3CCCN[C@@H]3C2)c(F)cc2c(=O)c(C(=O)O)cn(C3CC3)c12 [Moxifloxacin]
- T2-effective concentrations [2]: 100 fold FTPC
- significant T2 prolongation (p<0.05 and at least 15 % vs baseline) [2]: Significant T2 prolongations

SMILES: O=C1NC(=O)C(c2ccccc2)(c2ccccc2)N1 [Phenytoin]
- LD50 ([3]; in vivo): 1.635 mg∙kg^-1 (rat, p. o.) 100 mg∙kg^-1 (mouse, i. p.)
- LD50 [1]: 1.635 mg∙kg^-1 (rat, p. o.) 100 mg∙kg^-1 (mouse, i. p.)
- EHT-effective concentrations relative to hERG IC50 [2]: relaxation slowing occurred at concentrations below hERG IC50
- concentration at which T2 is prolonged [2]: 1 × FTPC
- significant T2 prolongation (p<0.05 and at least 15 % vs baseline) [2]: Significant T2 prolongations

SMILES: O=c1[nH]c2ccccc2n1C1CCN(CCCC(c2ccc(F)cc2)c2ccc(F)cc2)CC1 [Pimozide]
- LD50 [1]: 288 mg∙kg^-1 (mouse, p. o.)

SMILES: CCN(CC)CCNC(=O)c1ccc(N)cc1 [Procainamide]
- significant T2 prolongation (p<0.05 and at least 15 % vs baseline) [2]: Significant T2 prolongations

SMILES: Cc1nc2n(c(=O)c1CCN1CCC(c3noc4cc(F)ccc34)CC1)CCCC2 [Risperidone]
- LD50 ([3]; in vivo): 56,6 mg∙kg^-1 (rat, p. o.)

SMILES: CCOc1ccc(Oc2ccc(OCc3cc(F)ccc3F)cc2)c(N)c1 [SEA0400]
- effect on the T2-prolonging effect of 4AP [2, 4]: reduced the effect of 4AP
- effect on 4AP-induced beating irregularity and aftercontractions [2]: completely abolished beating irregularity and aftercontractions
- T2 values ([2]; SEA0400 2 µM, JTV519 2 µM): 78 ms
- relaxation remaining prolonged with 4AP in presence of inhibitor [2]: ~ 200%

SMILES: O=C1NCCN1CCN1CCC(c2cn(-c3ccc(F)cc3)c3ccc(Cl)cc23)CC1 [Sertindole]
- LD50 [1]: 420 mg∙kg^-1 (mouse, i. p.)
- effect on contraction time T1 (group 3) ([2]; 1–100× FTPC): prolongation of contraction time T1

SMILES: C[C@@H]1CN(c2c(F)c(N)c3c(=O)c(C(=O)O)cn(C4CC4)c3c2F)C[C@H](C)N1 [Sparfloxacin]
- significant T2 prolongation (p<0.05 and at least 15 % vs baseline) [2]: Significant T2 prolongations
- changes associated with T2 prolongation ([2]; original recording, Supplemental Fig. 4): marked reduction of beating rate and an increase in twitch force

SMILES: CC/C(=C(\c1ccccc1)c1ccc(OCCN(C)C)cc1)c1ccccc1 [Tamoxifen]
- LD50 ([3]; p. o.): 4.100 mg∙kg^-1 (rat, p. o.)

SMILES: CC(C)(C)c1ccc(C(O)CCCN2CCC(C(O)(c3ccccc3)c3ccccc3)CC2)cc1 (stereo not drawn) [Terfenadine]
- effect on T2 (group 3) ([2]; 1–100× FTPC): shortening of T2

SMILES: CCCCNc1ccc(C(=O)OCCN(C)C)cc1 [Tetracaine]
- effect on the T2-prolonging effect of 4AP [2, 4]: increased the T2-prolonging effect of 4AP
- ability to mimic the effect of JTV519 on 4AP-induced changes ([2]; data not shown): did not mimic the effect of JTV519

SMILES: NC1=N[C@H](O)[C@H]2[C@H]3O[C@]4(O)O[C@@H]([C@@H](O)[C@@]2(N1)[C@@H]4O)[C@]3(O)CO [Tetrodotoxin]
- effect of pure INa blockers on T1 [2]: did not prolong T1
- effect on the T2-prolonging effect of 4AP [2]: increased the T2-prolonging effect of 4AP

SMILES: C/C=C(/C)C(=O)O[C@H]1C(C)=C2[C@H]([C@@H]1OC(=O)CCCCCCC)[C@@](C)(OC(C)=O)C[C@H](OC(=O)CCC)[C@@]1(O)[C@H]2OC(=O)[C@@]1(C)O [Thapsigargin]
- effect on time of relaxation, alone ([2]; 3–30 nM): did not affect time of relaxation as such
- effect on the T2-prolonging effect of 4AP [2, 4]: increased the T2-prolonging effect of 4AP

SMILES: CSc1ccc2c(c1)N(CCC1CCCCN1C)c1ccccc1S2 (stereo not drawn) [Thioridazine]
- irregular beating as the primary effect [2]: induced irregular beating

SMILES: Cn1c(=O)c2c(ncn2C)n(C)c1=O [caffeine]
- effect on beating rate and twitch ([2]; high concentration of caffeine (5 mM)): reduced beating rate and induced a large and wide twitch

SMILES: C[N+](C)(C)CCOC(N)=O [carbachol]
- effect on frequency of beating in the burst ([2]; carbachol 1 µM added to epinephrine 50 nM): reversed epinephrine effect and induced partial stop
- EHTs that stopped spontaneous beating ([2]; carbachol 1 µM plus epinephrine): 3/7

SMILES: CCN(CC)CC(=O)Nc1c(C)cccc1C [lidocaine]
- effect of pure INa blockers on T1 ([2]; data not shown): did not prolong T1
